{"source": "patent US6730660B2", "about": "“Peritoneal dialysis solutions with polypeptides” (Baxter International Inc., priority 1992, dated 2004)", "tested_on": "albino guinea pigs", "assay": "Dermal sensitization study: intradermal induction with Freund's Complete Adjuvant, then intradermal challenge", "assay_type": "in vivo, guinea pig", "method": "The study was conducted using 10 test animals and four naive control animals per test or positive control material. On Day 1, animals in each test group received duplicate 0.05-mL intradermal injections of a 1:1 ratio of Freund's Complete Adjuvant in sterile water, the respective test material, and a 1:1 ratio of the respective test material in Freund's Complete Adjuvant.\nFor the positive control group, the animals received duplicate 0.05-mL intradermal injections of a 1:1 ratio of Freund's Complete Adjuvant in sterile water, a 5% w/v suspension of sulfathiazole in sterile water, and a 5% w/v suspension of sulfathiazole in Freund's Complete Adjuvant.\nOn day 7, animals in all three test groups and the positive control group were pretreated with 10% w/w sodium lauryl sulfate in petrolatum applied topically at the shaved area of the Day 1 intradermal injections. On Day 8, the respective test or positive control material was injected intradermally at a volume of 0.05 mL into two separate areas located just posterior to the initial intradermal injections.\nAll the test materials were administered undiluted and the positive control was administered as a 5% w/v suspension of sulfathiazole in sterile water. All naive control animals were not treated during the induction phase.\nTwo weeks following the Day 8 intradermal injections, all animals in the respective test and naive control groups received a challenge intradermal injection. The respective undiluted test material was injected intradermally at a volume of 0.05-mL into one site on the shaved right flank of each respective animal. The positive control animals were treated with a 1% w/v suspension of sulfathiazole in sterile 0.9% saline. The sites were examined for erythema and edema at 24, 48, and 72 hours following injection.\nYoung adult albino guinea pigs, Hra:(DH)SPF, were procured, maintained individually in screen-bottom stainless steel cages in temperature- and humidity-controlled rooms, provided continuous access to Certified Guinea Pig Chow® 5026, Purina Mills, Inc., and water and held for an acclimation period of at least 7 days. If variations from the prescribed environmental conditions existed, they were documented and considered to have no effect on the study outcome. No contaminants were expected to have been present in the feed or water which would have interfered with or affected the results of the study.\nIntradermal Injections (Day 1) A 4-cm×6-cm area was clipped along the midline over the shoulder region of each animal in the test and positive control groups. Six intradermal injections were made within the boundaries of a 2-cm×4-cm area, one row of three injections on each side of the midline as follows: […]", "data": [{"molecule": "Nc1ccc(S(=O)(=O)Nc2nccs2)cc1", "note": "[Sulfathiazole]", "values": [{"measurement": "dermal reactions at challenge", "setting": "Day 22 intradermal challenge 0.05 mL, examined at 24, 48 and 72 hours", "result": "Dermal sensitization responses were observed"}, {"measurement": "body weight loss of one animal", "setting": "animal E17221, Group 11, third week of the study", "result": 76, "unit": "g"}, {"measurement": "Classification (sensitizer)", "setting": "guinea pig, after intradermal challenge", "result": "Sensitizer"}, {"measurement": "# of Positive Reactions/# in Group", "setting": "test or positive control groups, after intradermal challenge", "result": "9/10"}]}]}
